Experiment in all cases: growth of human tumour cells (NCI), 48 h
For assay [1], the system named is ACHN renal.
In assay [2] the test system is CAKI-1 renal.
In assay [3] the test system is COLO 205 colon.
Assay [4] concerns EKVX NSCLC.
Assay [5] deals with HCT-116 colon.
Assay [6] relates to HOP-62 NSCLC.
Assay [7] deals with M14 melanoma.
Assay [8] concerns MALME-3M melanoma.
The test system of assay [9] is OVCAR-3 ovarian.
Assay [10] concerns OVCAR-5 ovarian.
For assay [11], the system named is RXF 393 renal.
In assay [12] the test system is SF-268 CNS.
The test system of assay [13] is SF-295 CNS.
Assay [14] concerns SK-MEL-28 melanoma.
For assay [15], the system named is SNB-19 CNS.
In assay [16] the test system is SNB-75 CNS.
Assay [17] has as its system U251 CNS.
Assay [18] concerns UACC-257 melanoma.
The test system of assay [19] is UACC-62 melanoma.
For assay [20], the system named is XF 498 CNS.

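Where inhibition never reached the appropriate level, the endpoint shown equals the highest concentration tested. Otherwise, values were interpolated linearly from a five-concentration, 48-hour dose response in 96-well plates. The concentration for full growth arrest is given as TGI.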

`Oc1ccc2ccccc2c1-c1c(Nc2ccccc2)ccc2ccccc12`: the TGI in assay [1] turned out to be 38.8 µM; in assay [2], 28.1 µM; in assay [3] it was 38 µM; in assay [4], 40 µM; in assay [5], 33.5 µM; in [6], 30.1 µM. Moreover, the TGI in assay [7] was 24.4 µM; in assay [8] it was 25 µM; in assay [9], 22.7 µM; in [10], greater than 50.1 µM; in [11] it was 34.3 µM; in assay [12], 31.6 µM. In addition, the TGI in assay [13] came to 30.5 µM; in [14], 27.4 µM; in assay [15] it was 37.4 µM; in assay [16], 31.9 µM; in assay [17] it was 52 µM; in assay [18] it was 40.3 µM. The TGI in assay [19] stood at 33.6 µM.
Take `Cc1c(/C=N/NC(=O)c2ccccc2)c(=O)n(-c2ccccc2)n1C`: the TGI in assay [1], in assay [3], in assay [4], in [5], in assay [6] and in assay [7] was greater than 100 µM each time. Besides, the TGI in assay [8], in assay [9], in [11], in assay [12], in assay [13] and in assay [14] was greater than 100 µM in each case. Moreover, the TGI in assay [15], in [16], in [17], in [18], in [19] and in assay [20] was greater than 100 µM each time.
As for `CCCCOP(=O)(OCCCC)/C(C#N)=C/c1ccc(C)o1`, the TGI in [1], in assay [2], in assay [3], in assay [4], in assay [5] and in assay [6] was greater than 100 µM throughout. Moreover, the TGI in [7] is 78.5 µM; in assay [8], 99.2 µM; in assay [9], 57.6 µM; in assay [10] it was greater than 100 µM; in [11] it was 86.1 µM; in assay [12] it was greater than 100 µM. Further, the TGI in assay [13], in assay [14], in [15], in assay [16], in [17] and in assay [18] was greater than 100 µM in each case. Moreover, in assay [19], the TGI is greater than 100 µM.
On to `O=C1NCC2(CCN(Cc3ccccc3)CC2)N1`, for which the TGI in assay [1], in assay [2], in [3], in assay [4], in assay [5] and in assay [6] was greater than 100 µM throughout. The TGI in [7], in [8], in assay [9], in [10], in assay [11] and in assay [12] was greater than 100 µM in each case. Besides, the TGI in assay [13], in [14], in assay [15], in assay [16], in assay [17] and in assay [18] was greater than 100 µM each time. Besides, in assay [19], the TGI is greater than 100 µM.
In the case of `Cc1ccc(S(=O)(=O)NC(=O)C2(Br)S(=O)(=O)OCCOS2(=O)=O)cc1`, the TGI in assay [1], in assay [3], in assay [4], in assay [5], in assay [6] and in [7] was greater than 100 µM throughout. The TGI in assay [8], in assay [9], in assay [10], in assay [11], in assay [12] and in assay [14] was greater than 100 µM throughout. Also, the TGI in assay [15], in [16], in assay [17], in assay [18], in assay [19] and in [20] was greater than 100 µM each time.
Consider `C[C@@H](C(=O)O)c1ccc(-c2ccccc2)c(F)c1`, for which the TGI in [1], in assay [2], in [3], in [4], in assay [5] and in [6] was greater than 100 µM each time. In addition, the TGI in [7], in assay [8], in [9], in assay [10], in assay [11] and in [12] was greater than 100 µM in each case. The TGI in assay [13], in [14], in [15], in assay [16], in assay [17] and in [18] was greater than 100 µM each time. Also, in assay [19], the TGI is greater than 100 µM.
Regarding `Cc1nc2c(=O)[nH]c3ccccc3c2o1`, the TGI in assay [1], in [2], in [3], in assay [4], in assay [5] and in assay [6] was greater than 100 µM in each case. Besides, the TGI in [7], in assay [8], in [9], in assay [10], in assay [11] and in assay [12] was greater than 100 µM each time. In addition, the TGI in assay [13], in assay [14], in assay [15], in [16], in assay [17] and in [18] was greater than 100 µM throughout. This compound also had a TGI in [19] greater than 100 µM.

Values taken from PubChem BioAssay (NCI).
